From ChEMBL document CHEMBL1142495, “Novel D3 selective dopaminergics incorporating enyne units as nonaromatic catechol bioisosteres: synthesis, bioactivity, and mutagenesis studies” (J Med Chem, 2008)

What was measured:
[1] = Displacement of [3H]ketanserin from 5HT2 receptor in pig cerebral cortex homogenate
[2] = target: T1, D(4) dopamine receptor (Homo sapiens, UniProt P21917); assay: Displacement of [3H]spiperone from human D4 receptor expressed in CHO cells; format: cell-based
T1 sequence (P21917 whole entry): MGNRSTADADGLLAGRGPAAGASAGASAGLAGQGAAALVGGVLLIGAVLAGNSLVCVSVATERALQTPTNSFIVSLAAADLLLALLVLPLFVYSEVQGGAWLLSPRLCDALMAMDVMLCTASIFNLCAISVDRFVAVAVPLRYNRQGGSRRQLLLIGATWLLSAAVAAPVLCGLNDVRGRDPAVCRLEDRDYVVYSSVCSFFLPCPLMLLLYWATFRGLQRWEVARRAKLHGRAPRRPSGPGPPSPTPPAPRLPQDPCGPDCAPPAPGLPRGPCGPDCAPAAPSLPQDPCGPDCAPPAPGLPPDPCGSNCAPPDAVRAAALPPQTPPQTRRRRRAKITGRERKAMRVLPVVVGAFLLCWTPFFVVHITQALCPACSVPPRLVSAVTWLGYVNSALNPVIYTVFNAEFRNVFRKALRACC

[3] = target: D(1A) dopamine receptor (Sus scrofa, UniProt P50130); assay: Displacement of [3H]SCH23390 from D1 receptor in pig striatal membrane; format: cell membranes, Striatum
[4] = target: T2, D(2) dopamine receptor (Homo sapiens, UniProt P14416); assay: Displacement of [3H]spiperone from human D2short receptor expressed in CHO cells; format: cell-based
[5] = target: T2, D(2) dopamine receptor; assay: Displacement of [3H]spiperone from human D2long receptor expressed in CHO cells; format: cell-based
[6] = Displacement of [3H]prazosin from adrenergic alpha1 receptor in pig cerebral cortex homogenate
[7] = Displacement of [3H]WAY100635 from 5HT1A receptor in pig cerebral cortex homogenate
[8] = target: T3, D(3) dopamine receptor (Homo sapiens, UniProt P35462); assay: biochemical
Description: Displacement of [3H]spiperone from human D3 receptor expressed in CHO cells

[9] = target: T3, D(3) dopamine receptor; assay: biochemical; remark: listed apart in the source
Description: Displacement of [3H]spiperone from human wild type D3 receptor expressed in human HEK293 cells

[10] = target: T3, D(3) dopamine receptor
Description: Intrinsic activity at human D3 receptor expressed in CHO dhfr- cells assessed as inhibition of forskolin-induced cAMP release

[11] = target: D(3) dopamine receptor (Homo sapiens, UniProt P35462, F345W); assay: biochemical
Description: Displacement of [3H]spiperone from human D3 F6.51W mutant receptor expressed in human HEK293 cells

[12] = target: D(3) dopamine receptor (Homo sapiens, UniProt P35462, D110E); assay: biochemical
Description: Displacement of [3H]spiperone from human D3 D3.32E mutant receptor expressed in human HEK293 cells

[13] = target: T3, D(3) dopamine receptor; remark: listed apart in the source
Description: Intrinsic activity at human D3 receptor expressed in CHO dhfr- cells by [3H]thymidine incorporation assay

T2 sequence (P14416 whole entry): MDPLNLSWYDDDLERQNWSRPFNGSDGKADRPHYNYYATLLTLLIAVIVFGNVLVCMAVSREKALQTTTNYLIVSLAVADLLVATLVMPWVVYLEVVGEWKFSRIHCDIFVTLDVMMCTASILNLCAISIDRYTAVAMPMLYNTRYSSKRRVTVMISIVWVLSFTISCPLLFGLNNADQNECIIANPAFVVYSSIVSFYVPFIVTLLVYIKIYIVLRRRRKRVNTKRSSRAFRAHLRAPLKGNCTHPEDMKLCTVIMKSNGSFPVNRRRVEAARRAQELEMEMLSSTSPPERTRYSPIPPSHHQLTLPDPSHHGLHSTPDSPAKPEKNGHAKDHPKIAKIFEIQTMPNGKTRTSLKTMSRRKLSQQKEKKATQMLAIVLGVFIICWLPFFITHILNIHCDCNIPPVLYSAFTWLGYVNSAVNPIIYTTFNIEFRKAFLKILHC
D(1A) dopamine receptor, sequence (P50130 whole entry): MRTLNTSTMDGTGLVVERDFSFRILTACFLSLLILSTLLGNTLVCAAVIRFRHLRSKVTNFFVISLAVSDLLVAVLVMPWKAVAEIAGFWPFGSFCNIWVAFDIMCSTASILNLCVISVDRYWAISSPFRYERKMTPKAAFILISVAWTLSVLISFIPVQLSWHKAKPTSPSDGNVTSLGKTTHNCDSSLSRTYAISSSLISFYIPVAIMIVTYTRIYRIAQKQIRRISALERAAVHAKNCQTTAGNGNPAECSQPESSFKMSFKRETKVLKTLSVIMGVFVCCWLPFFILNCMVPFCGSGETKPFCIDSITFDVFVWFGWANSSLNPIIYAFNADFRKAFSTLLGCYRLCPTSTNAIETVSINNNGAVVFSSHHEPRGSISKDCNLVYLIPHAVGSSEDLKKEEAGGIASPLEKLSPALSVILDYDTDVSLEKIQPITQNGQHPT
T3 sequence (P35462 whole entry): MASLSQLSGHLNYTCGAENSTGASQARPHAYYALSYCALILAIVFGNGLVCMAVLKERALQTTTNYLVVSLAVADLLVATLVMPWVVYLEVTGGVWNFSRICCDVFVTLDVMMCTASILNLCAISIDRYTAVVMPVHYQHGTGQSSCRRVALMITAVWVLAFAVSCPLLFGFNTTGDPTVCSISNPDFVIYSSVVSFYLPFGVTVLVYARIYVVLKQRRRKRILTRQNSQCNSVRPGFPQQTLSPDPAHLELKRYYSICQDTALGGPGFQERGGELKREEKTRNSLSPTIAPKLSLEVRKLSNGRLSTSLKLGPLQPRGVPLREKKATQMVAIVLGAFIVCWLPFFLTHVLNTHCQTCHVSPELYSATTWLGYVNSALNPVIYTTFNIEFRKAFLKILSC
D(3) dopamine receptor (Homo sapiens, UniProt P35462, F345W), sequence (P35462 as listed by the source F345W): as the sequence (P35462 whole entry) above, with G9S, F345W counted along it
D(3) dopamine receptor (Homo sapiens, UniProt P35462, D110E), sequence (P35462 as listed by the source D110E): as the sequence (P35462 whole entry) above, with G9S, D110E counted along it

Ki [1] [µM] | Ki [2] [µM] | Ki [3] [µM] | Ki [4] [µM] | Ki [5] [µM] | Ki [6] [µM] | Ki [7] [µM] | Ki [8] [µM] | Structure (SMILES) | Ki [9] [µM] | EC50 [10] [µM] | Ki [11] [µM] | Ki [12] [µM] | EC50 [13] [µM]
1.4 | 0.069 | 3.8 | 0.36 | 0.22 | 2.2 | 0.66 | 0.0044 | CCCN(CCCCNC(=O)c1ccc(-c2ccccc2)cc1)C1CC=C(C#C[Si](C)(C)C)CC1 (configuration not stated) | – | – | – | – | –
– | – | – | – | – | – | – | – | C#CC1=CCC(N(CCC)CCC)CC1 (configuration not stated) | 0.19 | 0.0077 | 5.7 | > 10 | 0.0044
8.3 | 3.1 | 13 | 4.7 | 5.5 | 4.6 | 5.8 | 0.3 | CCCN(CCCCNC(=O)c1ccc(-c2ccccc2)cc1)C1CC=C(C#Cc2ccccc2)CC1 (configuration not stated) | – | – | – | – | –
5.7 | 1.1 | 1.7 | 0.18 | 0.21 | 0.9 | 5.9 | 0.15 | CCCN(CCCCn1cc(-c2ccc(-c3ccccc3)cc2)nn1)C1CC=C(C#Cc2ccccc2)CC1 (configuration not stated) | – | – | – | – | –
0.46 | 0.0043 | 2.9 | – | – | 0.51 | 0.23 | – | C#CC1=CCC(N(CCC)CCCCNC(=O)c2ccc(-c3ccccc3)cc2)CC1 (configuration not stated) | – | – | – | – | –
0.79 | 1.4 | 6.8 | 8.8 | 9.7 | 2.4 | 2.8 | 0.95 | CCCN(CCC)CCCCNC(=O)c1ccc(-c2ccccc2)cc1 | – | – | – | – | –
15 | 0.1 | > 100 | 2.1 | 4.1 | 8.7 | 1.8 | 0.28 | CC#CC1=CCC(N(CCC)CCCCn2cc(C)nn2)CC1 (configuration not stated) | – | – | – | – | –
0.89 | 0.67 | 4.6 | 6.3 | 4.7 | 1.1 | 1.2 | 0.14 | CCCN(CCCCNC(=O)c1ccc(-c2ccccc2)cc1)C1CCCCC1 | – | – | – | – | –
0.86 | 6.1 | 7.3 | > 100 | 21 | 2.5 | 9.5 | 11 | CCCNCCCCNC(=O)c1ccc(-c2ccccc2)cc1 | – | – | – | – | –
8.3 | 1.8 | 5.8 | 0.67 | 0.69 | 1.9 | 6.9 | 0.013 | CCCN(CCCCn1cc(-c2ccc(-c3ccccc3)cc2)nn1)C1CC=C(C#C[Si](C)(C)C)CC1 (configuration not stated) | – | – | – | – | –

Structure (SMILES) | Ki [1] [µM] | Ki [2] [µM] | Ki [3] [µM] | Ki [4] [µM] | Ki [5] [µM] | Ki [6] [µM] | Ki [7] [µM] | Ki [8] [µM] | Ki [9] [µM] | EC50 [10] [µM] | Ki [11] [µM] | Ki [12] [µM] | EC50 [13] [µM]
C#CC1=CCC(N(CCC)CCCCn2cc(-c3ccc(-c4ccccc4)cc3)nn2)CC1 (configuration not stated) | 2.7 | 0.19 | 9.5 | 0.17 | 0.61 | 4.4 | 2.5 | 0.0013 | 0.0025 | 0.0031 | 0.033 | 1.5 | 0.0026
